Measured values from ChEMBL document CHEMBL1148543, “Discovery of A-770041, a src-family selective orally active lck inhibitor that prevents organ allograft rejection” (Bioorg Med Chem Lett, 2006).
Each block holds one compound with its values, some of them ahead of it.

Legend:
[1] = target: T1, Tyrosine-protein kinase Lck (Homo sapiens, UniProt P06239); experiment: Inhibitory activity against anti-CD3 mAb-induced IL2 production in human whole blood; format: functional, tissue-based
[2] = target: Tyrosine-protein kinase Fyn (Homo sapiens, UniProt P06241); experiment: Inhibitory activity against fyn
Chain of Tyrosine-protein kinase Fyn (P06241 whole entry): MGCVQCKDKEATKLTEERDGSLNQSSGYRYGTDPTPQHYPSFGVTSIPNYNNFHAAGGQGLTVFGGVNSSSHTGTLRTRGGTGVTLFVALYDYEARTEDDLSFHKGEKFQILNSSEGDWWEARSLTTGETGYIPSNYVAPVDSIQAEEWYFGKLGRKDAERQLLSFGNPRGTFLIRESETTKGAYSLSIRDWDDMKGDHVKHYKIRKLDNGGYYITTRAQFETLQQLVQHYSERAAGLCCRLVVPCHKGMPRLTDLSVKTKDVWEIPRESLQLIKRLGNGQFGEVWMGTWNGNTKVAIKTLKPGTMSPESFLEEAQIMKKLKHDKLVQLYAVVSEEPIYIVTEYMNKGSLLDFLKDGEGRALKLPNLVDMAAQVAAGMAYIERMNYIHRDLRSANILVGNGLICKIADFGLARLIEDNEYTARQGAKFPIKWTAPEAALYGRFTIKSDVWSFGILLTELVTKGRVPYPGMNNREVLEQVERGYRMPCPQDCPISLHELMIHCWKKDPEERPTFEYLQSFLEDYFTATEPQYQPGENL

[3] = target: T1, Tyrosine-protein kinase Lck; experiment: Inhibitory activity against lck
[4] = Tmax in mouse; format: ADME, organism-based; conditions: in vivo
[5] = target: Tyrosine-protein kinase Fgr (Homo sapiens, UniProt P09769); experiment: Inhibitory activity against fgr
Chain of Tyrosine-protein kinase Fgr (P09769 whole entry): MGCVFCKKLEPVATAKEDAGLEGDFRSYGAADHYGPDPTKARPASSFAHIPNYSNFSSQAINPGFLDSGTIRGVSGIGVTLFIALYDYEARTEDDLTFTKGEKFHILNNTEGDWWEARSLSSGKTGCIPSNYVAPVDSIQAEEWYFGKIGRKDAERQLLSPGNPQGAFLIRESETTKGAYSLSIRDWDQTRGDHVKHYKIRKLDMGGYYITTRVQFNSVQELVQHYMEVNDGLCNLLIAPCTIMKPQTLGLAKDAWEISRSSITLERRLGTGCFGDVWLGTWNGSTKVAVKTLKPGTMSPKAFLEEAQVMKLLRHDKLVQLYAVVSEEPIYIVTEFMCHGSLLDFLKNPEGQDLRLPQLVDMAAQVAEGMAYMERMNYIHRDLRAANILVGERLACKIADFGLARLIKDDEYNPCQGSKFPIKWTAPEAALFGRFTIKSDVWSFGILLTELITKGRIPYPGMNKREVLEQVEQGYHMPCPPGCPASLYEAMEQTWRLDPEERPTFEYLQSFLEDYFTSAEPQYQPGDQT

[6] = Volume of distribution in mouse; format: ADME, organism-based; conditions: in vivo, read-out: Vdss
[7] = target: Tyrosine-protein kinase Lyn (Homo sapiens, UniProt P07948); experiment: Inhibitory activity against lyn
Chain of Tyrosine-protein kinase Lyn (P07948 whole entry): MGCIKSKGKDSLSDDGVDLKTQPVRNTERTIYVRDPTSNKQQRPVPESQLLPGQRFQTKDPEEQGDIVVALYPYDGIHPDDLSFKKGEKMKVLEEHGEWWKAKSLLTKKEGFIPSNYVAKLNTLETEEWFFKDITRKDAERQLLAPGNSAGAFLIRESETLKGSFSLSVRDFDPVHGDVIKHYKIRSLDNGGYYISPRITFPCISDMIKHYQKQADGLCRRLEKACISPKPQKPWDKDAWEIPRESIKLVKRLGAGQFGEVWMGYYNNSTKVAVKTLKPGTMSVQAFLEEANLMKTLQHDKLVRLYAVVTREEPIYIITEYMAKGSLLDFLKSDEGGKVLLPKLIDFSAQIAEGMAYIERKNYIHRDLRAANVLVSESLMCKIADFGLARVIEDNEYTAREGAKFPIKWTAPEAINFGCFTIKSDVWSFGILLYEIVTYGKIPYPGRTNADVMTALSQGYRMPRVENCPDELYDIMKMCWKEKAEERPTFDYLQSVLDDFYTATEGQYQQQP

[8] = system: Rattus norvegicus; experiment: Plasma concentration in rat at 10 mg/kg/day; format: ADME, organism-based; conditions: in vivo
[9] = target: Mitogen-activated protein kinase kinase kinase 8 (Homo sapiens, UniProt P41279); experiment: Inhibitory activity against COT
Chain of Mitogen-activated protein kinase kinase kinase 8 (P41279 whole entry): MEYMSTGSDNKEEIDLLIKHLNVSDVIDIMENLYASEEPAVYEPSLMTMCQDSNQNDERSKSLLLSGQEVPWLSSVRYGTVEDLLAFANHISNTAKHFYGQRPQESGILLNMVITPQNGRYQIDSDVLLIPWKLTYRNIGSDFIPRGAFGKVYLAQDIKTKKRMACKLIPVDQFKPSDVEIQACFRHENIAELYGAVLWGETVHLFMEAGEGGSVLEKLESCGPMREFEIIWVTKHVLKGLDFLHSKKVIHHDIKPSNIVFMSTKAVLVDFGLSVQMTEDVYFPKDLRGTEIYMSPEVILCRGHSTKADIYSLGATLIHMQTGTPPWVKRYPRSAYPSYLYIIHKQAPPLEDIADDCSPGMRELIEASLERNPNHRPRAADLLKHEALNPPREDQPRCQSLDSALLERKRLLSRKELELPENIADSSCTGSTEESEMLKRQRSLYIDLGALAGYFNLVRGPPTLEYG

[10] = Cmax in mouse; format: ADME, organism-based; conditions: in vivo
[11] = Plasma clearance in rat; format: ADME, organism-based
[12] = Oral bioavailability in rat; format: ADME, organism-based; conditions: in vivo
[13] = target: Proto-oncogene tyrosine-protein kinase LCK (Mus musculus, UniProt P06240); experiment: Inhibition of TCR stimulated IL2 production in mice administered orally; format: functional
Chain of Proto-oncogene tyrosine-protein kinase LCK (P06240 whole entry): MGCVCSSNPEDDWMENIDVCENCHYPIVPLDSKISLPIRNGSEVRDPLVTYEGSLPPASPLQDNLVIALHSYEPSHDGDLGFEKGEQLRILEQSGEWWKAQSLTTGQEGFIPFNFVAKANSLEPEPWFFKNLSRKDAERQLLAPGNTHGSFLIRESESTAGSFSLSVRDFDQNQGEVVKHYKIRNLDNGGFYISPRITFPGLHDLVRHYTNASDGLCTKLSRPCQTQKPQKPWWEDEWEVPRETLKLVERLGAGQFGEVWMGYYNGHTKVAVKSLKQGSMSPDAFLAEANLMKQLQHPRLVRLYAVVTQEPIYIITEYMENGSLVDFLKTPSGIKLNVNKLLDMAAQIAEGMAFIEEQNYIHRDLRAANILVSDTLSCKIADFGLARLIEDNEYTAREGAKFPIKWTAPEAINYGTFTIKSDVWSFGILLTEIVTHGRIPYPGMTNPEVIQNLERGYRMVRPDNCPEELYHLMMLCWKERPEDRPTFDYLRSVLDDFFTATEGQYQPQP

[14] = target: Tyrosine-protein kinase SYK (Homo sapiens, UniProt P43405); experiment: Inhibitory activity against Syk
[15] = Tmax in rat; format: ADME, organism-based; conditions: in vivo
[16] = target: T2, Tyrosine-protein kinase ZAP-70 (Homo sapiens, UniProt P43403); experiment: Inhibitory activity against ZAP70
T2 sequence (P43403 whole entry): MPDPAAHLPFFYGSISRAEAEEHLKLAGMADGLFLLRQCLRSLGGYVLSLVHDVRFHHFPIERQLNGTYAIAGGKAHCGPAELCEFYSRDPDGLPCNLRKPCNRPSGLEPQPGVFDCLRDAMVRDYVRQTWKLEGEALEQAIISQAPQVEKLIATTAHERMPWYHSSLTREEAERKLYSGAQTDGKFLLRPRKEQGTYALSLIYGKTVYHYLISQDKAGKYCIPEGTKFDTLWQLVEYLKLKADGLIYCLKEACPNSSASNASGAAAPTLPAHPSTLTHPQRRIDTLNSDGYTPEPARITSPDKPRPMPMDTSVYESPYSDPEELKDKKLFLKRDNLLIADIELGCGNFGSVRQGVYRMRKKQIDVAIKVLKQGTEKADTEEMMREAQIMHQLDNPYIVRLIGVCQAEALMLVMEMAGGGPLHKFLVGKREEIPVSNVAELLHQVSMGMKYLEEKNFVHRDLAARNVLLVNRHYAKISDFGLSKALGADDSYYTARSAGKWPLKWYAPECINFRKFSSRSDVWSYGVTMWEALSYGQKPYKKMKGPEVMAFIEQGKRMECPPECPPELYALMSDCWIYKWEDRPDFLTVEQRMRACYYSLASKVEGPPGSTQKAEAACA

[17] = target: Angiopoietin-1 receptor (Homo sapiens, UniProt Q02763); experiment: Inhibitory activity against tie2
[18] = species on record: Rattus norvegicus; experiment: Plasma concentration in rat at […]; format: ADME, organism-based; conditions: in vivo
[19] = Volume of distribution in rat; format: ADME, organism-based; conditions: in vivo, read-out: Vdss
[20] = Oral bioavailability in mouse; format: ADME, organism-based; conditions: in vivo
[21] = Plasma clearance in mouse; format: ADME, organism-based
[22] = Cmax in rat; format: ADME, organism-based; conditions: in vivo
[23] = system: Rattus norvegicus; experiment: Plasma concentration in rat at 5 mg/kg/day; format: ADME, organism-based; conditions: in vivo
[24] = Half life in mouse; format: ADME, organism-based; conditions: in vivo
[25] = Half life in rat; format: ADME, organism-based; conditions: in vivo
[26] = target: Proto-oncogene tyrosine-protein kinase LCK (Mus musculus) (UniProt P06240)
Chain of Proto-oncogene tyrosine-protein kinase LCK (Mus musculus) (P06240 2-509 limits assumed): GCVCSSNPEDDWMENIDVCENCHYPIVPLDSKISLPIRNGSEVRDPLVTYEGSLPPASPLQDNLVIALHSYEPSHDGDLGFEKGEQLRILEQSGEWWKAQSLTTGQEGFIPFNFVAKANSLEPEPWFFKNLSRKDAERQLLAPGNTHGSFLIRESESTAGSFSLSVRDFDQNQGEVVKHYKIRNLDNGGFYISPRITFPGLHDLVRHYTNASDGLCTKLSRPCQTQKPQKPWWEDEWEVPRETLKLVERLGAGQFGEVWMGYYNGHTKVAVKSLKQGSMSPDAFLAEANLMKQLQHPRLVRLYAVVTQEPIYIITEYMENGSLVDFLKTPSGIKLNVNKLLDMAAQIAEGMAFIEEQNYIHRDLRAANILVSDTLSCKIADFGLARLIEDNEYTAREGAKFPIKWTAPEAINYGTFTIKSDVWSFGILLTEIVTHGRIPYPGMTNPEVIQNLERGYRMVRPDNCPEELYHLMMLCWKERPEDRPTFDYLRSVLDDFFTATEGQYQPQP

[27] = target: Proto-oncogene tyrosine-protein kinase Src (Homo sapiens, UniProt P12931); experiment: Inhibitory activity against src
Chain of Proto-oncogene tyrosine-protein kinase Src (P12931 2-536 limits assumed): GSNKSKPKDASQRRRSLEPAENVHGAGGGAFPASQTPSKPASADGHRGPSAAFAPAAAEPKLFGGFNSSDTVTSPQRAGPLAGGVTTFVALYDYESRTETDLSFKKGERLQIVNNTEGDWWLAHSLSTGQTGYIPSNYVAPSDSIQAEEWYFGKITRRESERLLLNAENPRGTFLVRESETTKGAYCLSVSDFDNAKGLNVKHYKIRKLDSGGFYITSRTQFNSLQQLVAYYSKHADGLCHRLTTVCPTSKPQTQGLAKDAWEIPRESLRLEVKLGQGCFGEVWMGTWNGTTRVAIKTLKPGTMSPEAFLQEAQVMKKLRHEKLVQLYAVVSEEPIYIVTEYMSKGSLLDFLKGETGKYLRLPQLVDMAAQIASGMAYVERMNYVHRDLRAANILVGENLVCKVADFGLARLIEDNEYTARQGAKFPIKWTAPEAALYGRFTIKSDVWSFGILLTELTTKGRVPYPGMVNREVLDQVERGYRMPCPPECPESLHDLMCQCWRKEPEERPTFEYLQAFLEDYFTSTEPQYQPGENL

T1 sequence (P06239 whole entry): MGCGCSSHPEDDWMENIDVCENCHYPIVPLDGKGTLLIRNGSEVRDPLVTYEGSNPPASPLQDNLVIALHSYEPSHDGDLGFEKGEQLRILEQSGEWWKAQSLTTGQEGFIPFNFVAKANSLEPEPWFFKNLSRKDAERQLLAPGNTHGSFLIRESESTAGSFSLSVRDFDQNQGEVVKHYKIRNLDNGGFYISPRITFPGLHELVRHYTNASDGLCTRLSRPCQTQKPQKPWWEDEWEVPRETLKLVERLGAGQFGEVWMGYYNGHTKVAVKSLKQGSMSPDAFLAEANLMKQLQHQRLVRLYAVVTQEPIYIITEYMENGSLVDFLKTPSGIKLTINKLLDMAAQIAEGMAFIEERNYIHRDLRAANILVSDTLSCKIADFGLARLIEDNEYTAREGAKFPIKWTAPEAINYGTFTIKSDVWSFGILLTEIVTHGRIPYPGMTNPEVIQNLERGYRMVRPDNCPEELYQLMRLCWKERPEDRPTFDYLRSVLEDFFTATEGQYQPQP

IC50 [1]: 54 nM | IC50 [2]: > 50000 nM | IC50 [3]: 318 nM
Compound: COc1cc(-c2nn(C3CCN(C4CCOCC4)CC3)c3ncnc(N)c23)ccc1NC(=O)c1nc2ccccc2n1C

IC50 [1]: 540 nM | IC50 [2]: > 50000 nM | IC50 [3]: 341 nM
Compound: COc1cc(-c2nn(C3CCN(Cc4ccccc4)CC3)c3ncnc(N)c23)ccc1NC(=O)c1ccc(C(F)(F)F)cc1F

IC50 [1]: 50 nM | IC50 [2]: > 50000 nM | IC50 [3]: 80 nM
Compound: COc1cc(-c2nn(C3CCNCC3)c3ncnc(N)c23)ccc1NC(=O)c1ccc(C(F)(F)F)cc1F

IC50 [2]: > 50000 nM | IC50 [3]: 9180 nM
Compound: COc1cc(-c2nn(C3CCN(C4CCOCC4)CC3)c3ncnc(N)c23)ccc1NC(=O)c1cc(O)c2ccccc2n1

IC50 [1]: 40 nM | IC50 [2]: > 50000 nM | IC50 [3]: 102 nM
Compound: COc1cc(-c2nn(C3CCN(C4CCOCC4)CC3)c3ncnc(N)c23)ccc1NC(=O)c1ccc(C(F)(F)F)cc1F

IC50 [2]: > 50000 nM | IC50 [3]: 2350 nM
Compound: COc1cc(-c2nn(C3CCN(C4CCOCC4)CC3)c3ncnc(N)c23)ccc1NC(=O)c1ccc(OC(F)(F)F)cc1

Tmax [4]: 1 h | IC50 [5]: 14100 nM | Vd [6]: 10.3 L/kg | IC50 [1]: 80 nM | IC50 [7]: 1180 nM | concentration [8]: 2900 nM | IC50 [9]: > 25000 nM | Cmax [10]: 387 ng/mL | clearance [11]: 3.33 mL/min/kg | bioavailability [12]: 52% | EC50 [13]: 78 nM | IC50 [14]: > 25000 nM | Tmax [15]: 4.7 h | IC50 [16]: > 25000 nM | IC50 [17]: > 50000 nM | concentration [18]: 350 nM | Vd [19]: 1.2 L/kg | bioavailability [20]: 27% | clearance [21]: 25 mL/min/kg | Cmax [22]: 2080 ng/mL | concentration [23]: 1060 nM | half-life [24]: 4.7 h | IC50 [3]: 147 nM | half-life [25]: 4.1 h
Compound: COc1cc(-c2nn([C@H]3CC[C@H](N4CCN(C(C)=O)CC4)CC3)c3ncnc(N)c23)ccc1NC(=O)c1cc2ccccc2n1C

IC50 [1]: 30 nM | IC50 [2]: > 50000 nM | IC50 [3]: 93 nM
Compound: COc1cc(-c2nn(C3CCN(C4CCN(C(C)=O)CC4)CC3)c3ncnc(N)c23)ccc1NC(=O)c1ccc(C(F)(F)F)cc1F

IC50 [1]: 20 nM | IC50 [2]: 1070 nM | IC50 [3]: 23 nM
Compound: COc1cc(-c2nn(C3CCN(C4CCN(C)CC4)CC3)c3ncnc(N)c23)ccc1NC(=O)c1ccc(C(F)(F)F)cc1F

IC50 [2]: > 50000 nM | IC50 [3]: 8960 nM
Compound: COc1cc(-c2nn(C3CCN(C4CCOCC4)CC3)c3ncnc(N)c23)ccc1NC(=O)c1ccc(C)cc1

IC50 [2]: ≥ 50000 nM | ED90 [26]: 19 mg/kg | IC50 [27]: 17200 nM | IC50 [3]: 74 nM
Compound: COc1cc(-c2nn(C3CCN(C4CCN(C(C)=O)CC4)CC3)c3ncnc(N)c23)ccc1NC(=O)c1cc2ccccc2n1C

IC50 [2]: 32500 nM | IC50 [3]: 3480 nM
Compound: COc1cc(-c2nn(C3CCN(C4CCOCC4)CC3)c3ncnc(N)c23)ccc1NC(=O)c1cc2cc(C#N)ccc2n1C

IC50 [1]: 35 nM | IC50 [2]: > 50000 nM | IC50 [3]: 106 nM
Compound: COc1cc(-c2nn(C3CCN(C4CCOCC4)CC3)c3ncnc(N)c23)ccc1NC(=O)c1ccc(N(C)C)cc1

Compound: COc1cc(-c2nn(C3CCN(C)CC3)c3ncnc(N)c23)ccc1NC(=O)c1ccc(C(F)(F)F)cc1F
IC50 [1]: 30 nM | IC50 [2]: > 50000 nM | IC50 [3]: 106 nM

IC50 [2]: > 50000 nM | IC50 [3]: 23200 nM
Compound: COc1cc(-c2nn(C3CCN(C4CCOCC4)CC3)c3ncnc(N)c23)ccc1NC(=O)c1cccc(O)c1

IC50 [2]: > 50000 nM | IC50 [3]: > 50000 nM
Compound: COc1cc(-c2nn(C3CCN(C4CCOCC4)CC3)c3ncnc(N)c23)ccc1NC(=O)c1cc2cc(C(N)=O)ccc2n1C

Compound: COc1cc(-c2nn(C3CCN(C4CCOCC4)CC3)c3ncnc(N)c23)ccc1NC(=O)c1cc2ccccc2n1C
IC50 [1]: 20 nM | IC50 [2]: > 50000 nM | bioavailability [20]: 93% | ED90 [26]: 15.5 mg/kg | half-life [24]: 3.1 h | IC50 [3]: 107 nM

IC50 [1]: 13 nM | IC50 [2]: 13600 nM | IC50 [3]: 54 nM
Compound: COc1cc(-c2nn(C3CCN(C4CCOCC4)CC3)c3ncnc(N)c23)ccc1NC(=O)c1cc2cc(Cl)ccc2n1C
